We go through twelve molecules from ChEMBL document CHEMBL1135088, “Minimal structural requirements for agonist activity of PAR-2 activating peptides” (Bioorg Med Chem Lett, 2002).

The structures appear in SMILES notation. Non-standard residues stand in square brackets, D forms with d. Residues, ends and D or L forms follow the SMILES beside them. *: point of attachment. Arg(NO2) = N=C(NCCC[C@H](N)C(=O)O)N[N+](=O)[O-]; Bz = O=C(c1ccccc1)*

For one experiment, the species on record is Rattus norvegicus. Description: In vitro vasorelaxant activity in male wistar rat thoracic aorta by classical rat aorta relaxation assay; n.a.=not active up to a concentration of 3e-4 M. In kind it is functional.
As a reminder, the EC50 is the midpoint of the concentration-response curve. Take `CC(C)C[C@H](NC(=O)[C@H](CCC/N=C(\N)N[N+](=O)[O-])NC(=O)C1CCCCC1)C(N)=O`: the EC50 result was “Not Active”.

`CC(C)C[C@H](NC(=O)[C@H](CCC/N=C(\N)N[N+](=O)[O-])NC(=O)c1ccc(C(F)(F)F)cc1)C(N)=O`: the 50% effective concentration (EC50) entry is recorded as “Not Active”.

For the molecule `CC(C)C[C@H](NC(=O)[C@H](CCC/N=C(\N)N[N+](=O)[O-])NC(=O)c1ccc(Cl)cc1)C(N)=O`, the EC50 entry was “Not Active”.

With `CC(C)C[C@H](NC(=O)[C@H](CCC/N=C(\N)N[N+](=O)[O-])NC(=O)c1ccc([N+](=O)[O-])cc1)C(N)=O`, the EC50 entry was “Not Active”.

With `CC(C)C[C@H](NC(=O)[C@H](CCC/N=C(\N)N[N+](=O)[O-])NS(=O)(=O)c1ccccc1)C(N)=O`, the EC50 entry is reported as “Not Active”.

On to `CSc1ccc(C(=O)N[C@@H](CCC/N=C(\N)N[N+](=O)[O-])C(=O)N[C@@H](CC(C)C)C(N)=O)cc1`, for which the EC50 result was “Not Active”.

For `CC(C)C[C@H](NC(=O)[C@H](CCC/N=C(\N)N[N+](=O)[O-])NC(=O)c1ccc(C#N)cc1)C(N)=O`, the EC50 entry is “Not Active”.

As to `CC(=O)N[C@@H](CCC/N=C(\N)N[N+](=O)[O-])C(=O)N[C@@H](CC(C)C)C(N)=O` (Ac-[Arg(NO2)]-Leu-NH2), the concentration giving a half-maximal response (EC50) entry is reported as “Not Active”.

A further experiment is filed under the species Rattus norvegicus. Description: In vitro vasorelaxant activity in male wistar rat thoracic aorta by classical rat aorta relaxation assay. It is filed as functional.
Regarding `COc1ccc(C(=O)N[C@@H](CCC/N=C(\N)N[N+](=O)[O-])C(=O)N[C@@H](CC(C)C)C(N)=O)cc1`, the half-maximal effective concentration (EC50) worked out at 69 µM.

In the case of `CC(C)C[C@H](NC(=O)[C@H](CCC/N=C(\N)N[N+](=O)[O-])NC(=O)c1ccc(OC(F)(F)F)cc1)C(N)=O`, the EC50 is 20 µM.

For the molecule `CC(C)C[C@H](NC(=O)[C@H](CCC/N=C(\N)N[N+](=O)[O-])NC(=O)c1ccccc1)C(N)=O` (Bz-[Arg(NO2)]-Leu-NH2), a half-maximal response (EC50) required 400 µM.

The molecule `CC[C@H](C)[C@H](NC(=O)[C@H](CC(C)C)NC(=O)[C@@H](N)CO)C(=O)NCC(=O)N[C@@H](CCCNC(=N)N)C(=O)N[C@@H](CC(C)C)C(N)=O` (H-SLIGRL-NH2) yielded a concentration for a half-maximal effect (EC50) of 4 µM.
